One data set can be described thus: Hygroscopicity (DVS). In kind it is physicochemical. Conditions: for hygroscopicity (in words): DVS experiments on the Active Pharmaceutical Ingredients; for hygroscopicity class (in words) / hygroscopic weight gain: at 80% humidity; for hygroscopic weight gain: tartrate.
Data set [1] in a line: Preliminary stability tests (high temperature, high humidity, illumination). To be noted: high humidity, and illumination, versus free base and other salt forms. Format: physicochemical. From the text: However, unlike phosphates and the like, the above increase in solubility is not accompanied by a significant increase in hygroscopicity. […] The above and other advantages will be favorable for overcoming various challenges faced by the development of pharmaceutical products containing selective CDK 9 kinase inhibitors of Formula I.

Another data set in a line: physchem. Conditions: for solubility: 25 °C, thermodynamic from solid. From the text: Perform scale-up experiments on the above six salts to determine solubilities of various salts in different pH buffers and deionized water, and compare with the free base.
Data set [2] can be described thus: Equilibrium solubility of crystal forms under simulated in vivo conditions. Format: physicochemical. To be noted: simulated in vivo conditions (pH=2.0, 4.6, 6.8).
Data set [3] is described as follows: Conversion experiments between the crystal forms. In kind it is physicochemical. To be noted: conversion between Crystal Form A and Form B.

Broadly, the solubility is how much of the substance goes into solution per volume. Low values mean a poorly soluble substance, high ones a readily soluble substance.

For `CNc1nc(C)c(-c2nc(Nc3cccc(S(N)(=O)=O)c3)ncc2F)s1` [LS007, 3-(5-fluoro-4-(4-methyl-2-(methylamino)thiazol-5-yl)pyrimidin-2-ylamino)-benzenesulfonamide], in the data set “Hygroscopicity (DVS)”, the “hygroscopicity (in words)” value is given as “very low hygroscopicity”.
Take `CNc1nc(C)c(-c2nc(Nc3cccc(S(N)(=O)=O)c3)ncc2F)s1.O=C(O)C(O)C(O)C(=O)O` [Form B, 3-(5-fluoro-4-(4-methyl-2-(methylamino)thiazol-5-yl)pyrimidin-2-ylamino)-benzenesulfonamide tartrate]: in the data set “Hygroscopicity (DVS)”, the “hygroscopicity class (in words)” value is reported as “non-hygroscopic” and the hygroscopic weight gain stood at 0.11%.
In the case of `CNc1nc(C)c(-c2nc(Nc3cccc(S(N)(=O)=O)c3)ncc2F)s1.O=P(O)(O)O` [Phosphate], the “hygroscopicity (in words)” value in “Hygroscopicity (DVS)” is “highest hygroscopicity”. Moreover, the water absorbed in the data set “Hygroscopicity (DVS)” (DVS, 60% RH) is on record as 11.71%.
For the molecule `CNc1nc(C)c(-c2nc(Nc3cccc(S(N)(=O)=O)c3)ncc2F)s1.O=C(O)C(O)C(O)C(=O)O` [Tartrate, 3-(5-fluoro-4-(4-methyl-2-(methylamino)thiazol-5-yl)pyrimidin-2-ylamino)-benzenesulfonamide tartrate], the “stability (in words)” value in data set [1] is listed as “better stability”. Moreover, the solubility in the data set “physchem” (pH 2, aqueous buffer) came out at 4300 µg/mL; in “physchem” (pH 4.5, aqueous buffer), 7.5 µg/mL; in the data set “physchem” (pH 6.8, aqueous buffer), 3.7 µg/mL; in the data set “physchem” (water), 418 µg/mL. In addition, the “solubility compared to the raw materials (in words)” value in “physchem” (pH 2.0 buffer and deionized water, HPLC) was “significantly increased”. Further, the “hygroscopicity (in words)” value in “Hygroscopicity (DVS)” was “lowest hygroscopicity”.
For `CNc1nc(C)c(-c2nc(Nc3cccc(S(N)(=O)=O)c3)ncc2F)s1.O=C(O)C(O)C(O)C(=O)O` [Form A, 3-(5-fluoro-4-(4-methyl-2-(methylamino)thiazol-5-yl)pyrimidin-2-ylamino)-benzenesulfonamide tartrate], in data set [2], the “equilibrium solubility (in words)” value is listed as “greater than that of Form B”. Also, in data set [3], the “crystal form stability (in words)” value is recorded as “more stable crystal form”. In addition, in the data set “Hygroscopicity (DVS)”, the “hygroscopicity class (in words)” value is given as “non-hygroscopic” and the hygroscopic weight gain is given as 0.22%.

Values taken from patent US11566024B2 (CHANGZHOU QIANHONG BIOPHARMA CO., LTD, priority 2018, dated 2023).
